Measurements: patent US8076327B2, “Condensed imidazole derivatives as aldosterone synthase inhibitors” (Novartis AG, priority 2006, dated 2011)

What was measured:
[1] = test system: plasma aldosterone levels; assay: Suppression of plasma aldosterone in ACTH-stimulated rats; assay type: in vivo, Wistar rats; details: 4 mg/kg p.o.; plasma level 2 h after dosing relative to 1 h prior to dosing; rat
Experimental: (§1) The aldosterone- and corticosterone-suppressing activity of herein described compounds may be assessed with the following in vivo protocol.
(§2) Adult male Wistar rats weighing between 250 and 350 grams are kept under the usual 12-hour light and 12-hour dark conditions at a temperature of 23° C.±2° C. On the first day of the experiment, the animals receive a subcutaneous injection of a depot ACTH product in a dose of 1.0 mg/kg weight (SYNACTHEN-Depot, Novartis, Basel, CH) 16 hours prior to the administration of a test compound. […] An alternative method to stimulate aldosterone secretion consists in subjecting rats to a low salt diet for 48 hours and applying the diuretic furosemide at 10 mg/kg by subcutaneous or intraperitoneal administration 16 hours, respectively 2 hours prior to the start of the experiment. On the second day of the experiment, the animals are divided into test groups of 5 animals and subjected to a first bleed 1 hour prior to the administration of test compound. Subsequently, and 16 hours after the injection of the ACTH product, the animals receive either vehicle or test compound dissolved in vehicle in a variable dose range from 0.02 to 20 mg/kg by oral gavage. The animals are bled two more times from the vena subclavia under isoflurane anaesthesia 2 and 6 hours after dosing. The blood is collected in heparin-treated tubes. The plasma samples are obtained by centrifugation and stored at −20° C. An alternative method to bleed animals time-dependently consists in using animals that are chronically carotid catheterized which allows the periodical sampling of up to 0.2 ml of blood using an AccuSampler (DiLab Europe, Lund, Sweden). The blood sampling with the AccuSampler may occur 1 hour prior to the administration of a test compound and 2, 4, 6, 8, 12, 16 and 24 hours thereafter. The blood samples are anticoagulated with heparin and centrifuged. The aldosterone and corticosterone concentrations of the plasma samples can be determined with a radioimmunoassay as described above for the in vitro test systems.
(§3) The selective suppression of plasma steroid levels as for instance aldosterone in comparison to corticosterone may serve as a measure for in vivo bioavailability and pharmacodynamic enzyme inhibitory activity of the herein described compounds. The evaluation of the data may occur relative to the application of vehicle or quantitatively by determination of the area under the curve (AUC).

[2] = test system: plasma corticosterone levels; assay: Suppression of plasma corticosterone in ACTH-stimulated rats; assay type: in vivo, Wistar rats; details: 4 mg/kg p.o.; plasma level 2 h after dosing relative to 1 h prior to dosing; rat
Experimental: as §1, §2, §3

[3] = biological target: T1, recombinant human Cyp19 enzyme (Homo sapiens, UniProt P11511); assay: Cyp19/MFC high throughput enzyme inhibition kit (aromatase); assay type: biochemical
T1 construct: purchased Becton Dickinson Biosciences, San Jose, Calif., USA
T1 sequence (P11511 1-503): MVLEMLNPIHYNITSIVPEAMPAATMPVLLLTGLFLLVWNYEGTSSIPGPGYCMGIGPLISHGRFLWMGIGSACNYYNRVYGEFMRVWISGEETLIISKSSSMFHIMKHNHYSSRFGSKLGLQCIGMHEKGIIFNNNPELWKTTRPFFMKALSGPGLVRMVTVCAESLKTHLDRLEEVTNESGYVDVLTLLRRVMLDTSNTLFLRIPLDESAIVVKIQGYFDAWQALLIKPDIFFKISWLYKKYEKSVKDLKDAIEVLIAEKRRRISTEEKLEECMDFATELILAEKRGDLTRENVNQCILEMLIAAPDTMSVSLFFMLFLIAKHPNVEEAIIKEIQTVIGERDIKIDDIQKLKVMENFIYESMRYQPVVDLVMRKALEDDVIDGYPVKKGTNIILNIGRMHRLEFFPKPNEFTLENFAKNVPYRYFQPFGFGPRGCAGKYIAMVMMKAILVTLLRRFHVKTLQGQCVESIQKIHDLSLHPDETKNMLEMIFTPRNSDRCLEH
Experimental: The compounds of the formula (Ia) have at least one asymmetric carbon atom, which is labelled “*”. A compound of the formula (Ia) is to be understood as a compound having a specific configuration around the designated asymmetric carbon atom. If a synthesis method is used which leads to racemic compounds, the racemate resolution is carried out in accordance with conventional methods, such as via a chiral HPLC column. […] The aforementioned aromatase inhibitory activity can, as the skilled worker is well aware and as described below, be comfortably determined using the commercial Cyp19 enzyme inhibition kit, preferably the Cyp19/methoxy-4-trifluoromethyl-coumarin (MFC) high throughput inhibition kit (Becton Dickinson Biosciences, San Jose, Calif., USA) as described hereafter. In the abovementioned inhibition kit, compounds of the formula (Ia) have an activity which is at least 10 times lower preferably 20 times lower, but more preferably 40 times lower than the compounds of the formula (Ia) with the opposite configuration around the asymmetric carbon atom labelled “*”. A lower inhibiting activity corresponds to a higher IC50 value.
The Cyp19/methoxy-4-trifluoromethyl-coumarin (MFC) high throughput inhibition kit (Becton Dickinson Biosciences, San Jose, Calif., USA), for example, is designed to screen for potential inhibitors of Cyp19 catalytic activity in a 96-well format. […]

Row | Structure (SMILES) | Aldosterone levels (% change at 2 h) [1] [%] | Corticosterone levels (% change at 2 h) [2] [%] | IC50 [3] [nM]
1 | N#Cc1ccc(C2SCCn3cncc32)cc1 (stereo not drawn) [Example 2, 4-(5,6-Dihydro-8H-imidazo[5,1-c][1,4]thiazin-8-yl)benzonitrile] | −56 | −22 | –
2 | CC1(c2ccc(C#N)cc2)SCCn2cncc21 (stereo not drawn) [Example 4, 4-(8-Methyl-5,6-dihydro-8H-imidazo[5,1-c][1,4]thiazin-8-yl)-benzonitrile] | −19 | −10 | –
3 | CC(=O)c1ccc(C2OCCn3cncc32)cc1 (stereo not drawn) [Example 18, 1-[4-(5,6-Dihydro-8H-imidazo[5,1-c][1,4]oxazin-8-yl)phenyl]ethanone] | −33 | 4 | –
4 | N#Cc1ccc(C2OCCn3cncc32)cc1 (racemic) [antipode of 24, 4-(5,6-Dihydro-8H-imidazo[5,1-c][1,4]oxazin-8-yl)benzonitrile] | – | – | 7.1
5 | N#Cc1cccc(C2OCCn3cncc32)c1 (stereo not drawn) [Example 19, 3-(5,6-Dihydro-8H-imidazo[5,1-c][1,4]oxazin-8-yl)benzonitrile] | −65 | 1.7 | –
